Where two headings read alike, the source gives them in different places.
How the values were obtained:
[1] = target: T1, cloned human m1 muscarinic receptor (Homo sapiens, UniProt P11229); assay: Muscarinic binding activity (3H-QNB displacement), m1
T1 sequence (P11229 1-460): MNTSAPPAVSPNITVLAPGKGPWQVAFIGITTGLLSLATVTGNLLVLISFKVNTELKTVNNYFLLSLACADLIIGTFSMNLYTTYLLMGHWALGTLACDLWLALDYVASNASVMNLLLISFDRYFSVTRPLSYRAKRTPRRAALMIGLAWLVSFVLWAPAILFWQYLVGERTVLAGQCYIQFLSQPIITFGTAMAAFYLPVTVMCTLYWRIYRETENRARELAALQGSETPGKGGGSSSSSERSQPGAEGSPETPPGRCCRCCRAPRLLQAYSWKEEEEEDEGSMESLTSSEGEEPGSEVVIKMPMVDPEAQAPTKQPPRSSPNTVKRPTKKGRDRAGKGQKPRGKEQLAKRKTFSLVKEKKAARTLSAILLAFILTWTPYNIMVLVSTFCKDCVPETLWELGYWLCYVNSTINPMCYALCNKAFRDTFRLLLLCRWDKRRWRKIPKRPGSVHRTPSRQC

[2] = target: T2, cloned human m2 muscarinic receptor (Homo sapiens, UniProt P08172); assay: Muscarinic binding activity (3H-QNB displacement), m2
T2 sequence (P08172 1-466): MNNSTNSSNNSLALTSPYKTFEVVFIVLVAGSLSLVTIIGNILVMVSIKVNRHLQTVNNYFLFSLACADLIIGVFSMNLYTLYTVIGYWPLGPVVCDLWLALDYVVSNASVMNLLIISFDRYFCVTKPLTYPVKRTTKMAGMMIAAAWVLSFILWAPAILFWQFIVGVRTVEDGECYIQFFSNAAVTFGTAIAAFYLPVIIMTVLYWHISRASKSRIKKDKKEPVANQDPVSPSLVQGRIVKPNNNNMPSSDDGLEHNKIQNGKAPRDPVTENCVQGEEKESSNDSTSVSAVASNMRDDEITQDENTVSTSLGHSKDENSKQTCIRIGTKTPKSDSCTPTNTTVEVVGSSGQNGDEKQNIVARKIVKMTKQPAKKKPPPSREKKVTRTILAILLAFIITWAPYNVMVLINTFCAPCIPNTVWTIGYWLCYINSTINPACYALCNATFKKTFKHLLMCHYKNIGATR

[3] = target: T3, cloned human m4 muscarinic receptor (Homo sapiens, UniProt P08173); assay: Muscarinic binding activity (3H-QNB displacement), m4
T3 sequence (P08173 1-479): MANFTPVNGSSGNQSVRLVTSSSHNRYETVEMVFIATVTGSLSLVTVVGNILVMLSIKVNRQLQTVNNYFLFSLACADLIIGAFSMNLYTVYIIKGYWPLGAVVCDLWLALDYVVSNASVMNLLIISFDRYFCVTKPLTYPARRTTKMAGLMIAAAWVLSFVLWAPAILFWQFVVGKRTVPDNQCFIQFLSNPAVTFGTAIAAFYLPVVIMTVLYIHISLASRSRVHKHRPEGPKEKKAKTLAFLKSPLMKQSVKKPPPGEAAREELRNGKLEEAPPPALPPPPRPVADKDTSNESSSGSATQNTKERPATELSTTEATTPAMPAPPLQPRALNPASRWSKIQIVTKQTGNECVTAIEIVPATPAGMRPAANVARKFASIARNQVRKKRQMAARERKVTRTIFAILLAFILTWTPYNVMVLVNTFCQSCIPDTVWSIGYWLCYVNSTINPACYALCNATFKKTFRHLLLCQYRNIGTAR

[4] = system: Release of Acetyl Choline (ACh) from Striatum; assay: Microdialysis: release of acetylcholine from striatum of conscious rats; format: in vivo, male Sprague-Dawley Rats; conditions: 10 mg/kg peritoneal, 3 rats, Isomer B
Protocol: The skull was exposed and drilled through to the dura at a point 0.2 mm anterior and 3.0 mm lateral to the bregma. At these coordinates, a guide cannula was positioned at the outer edge of the dura through the drilled opening, lowered perpendicularly to a depth of 2.5 mm, and permanently secured with dental cement to bone screws. Following the surgery, rats were given ampicillin (40 mg/kg, ip) and individually housed in modified cages. A recovery period of approximately 3 to 7 days was allowed before the microdialysis procedure was undertaken. • Microdialysis: All of the equipment and instrumentation used to conduct in vivo microdialysis was obtained from Bioanalytical Systems, Inc. (BAS). The microdialysis procedure required the insertion through the guide cannula of a thin, needle-like perfusable probe (CMA/12.3 mm x 0.5 mm) to a depth of 3 mm in striatum beyond the end of the guide. The probe was connected beforehand with tubing to a microinjection pump (CMA-/100). Rats were collared and tethered, and, following probe insertion, were placed in a large clear plexiglass bowl with litter material and access to food and water. The probe was perfused at 2 µl/min with Ringer's buffer (NaCl 147 mM; KCI 3.0 mM; CaCl2 1.2 mM; MgCl2 1.0 mM) containing 5.5 mM glucose, 0.2 mM L-ascorbate, and 1 µM neostigmine bromide at pH 7.4. To achieve stable baseline readings, microdialysis was allowed to proceed for 90 minutes prior to the collection of fractions. Fractions (20 µl) were obtained at 10-minute intervals over a 3-hour period using a refrigerated collector (CMA/170 or 200). Following the collection of four to five baseline fractions, the drug or combination of drugs to be tested was administered to the animal. Once collection was complete, each rat was autopsied to determine how accurately the probe was placed. • Acetylcholine (ACh) analysis: The concentration of ACh in collected samples of microdialysate was determined using HPLC/electrochemical detection. Samples were auto-injected (Waters 712 Refrigerated Sample Processor) onto a polymeric analytical HPLC column (BAS, MF-6150) and eluted with 50 mM Na2HPO4, pH 8.5. To prevent bacterial growth, Kathon CG reagent (0.005%) (BAS) was included in the mobile phase. Eluate from the analytical column, containing separated ACh and choline, was then immediately passed through an immobilized enzyme reactor cartridge (BAS, MF-6151) coupled to the column outlet. The reactor contained both acetylcholinesterase and choline oxidase covalently bound to a polymeric backbone. […] Data acquisition was carried out using an IBM Model 70 computer equipped with a microchannel IEEE board. Integration and quantification of peaks were accomplished using "Maxima" chromatography software (Waters Corporation). Total run time per sample was 11 minutes at a flow rate of 1 ml/min. Retention times for acetylcholine and choline were 6.5 and 7.8 minutes respectively. To monitor and correct for possible changes in detector sensitivity during chromatography, ACh standards were included at the beginning, middle and end of each sample queue.
Increases in ACh levels are consistent with presynaptic m2 receptor antagonism.

[5] = membranes of transfected CHO cells, read-out: Ki m1
[6] = membranes of transfected CHO cells, read-out: Ki m2
[7] = membranes of transfected CHO cells, read-out: Ki m4

SMILES | Ki [1, 5] [µM] | Ki [2, 6] [µM] | Ki [3, 7] [µM] | also measured
O=[N+]([O-])c1ccc(Oc2ccc3c(c2)OCCC3N2CCN(C3CCCCC3)CC2)cc1 (stereo not shown) [Compound 2, 1-Cyclohexyl-4-[7-[(4-nitrophenyl)oxy]-chroman-4-yl]-piperazine] | 0.042 | 0.027 |  | 
c1cnc(Oc2ccc3c(c2)CC(CC2CCCCC2)C3N2CCN(C3CCCCC3)CC2)nc1 (stereo not shown) [Compound 12, 2-[[1-(4-Cyclohexyl-1-piperazinyl)-2-(cyclohexylmethyl)-2,3-dihydro-1H-inden-5-yl]oxy]pyrimidine] | 0.173 | 0.092 |  | 
COc1ccc(S(=O)(=O)c2ccc3c(c2)CCC3N2CCN(C3CCCCC3)C[C@H]2C)cc1 (single isomer, unassigned) [Compound 15] |  |  |  | Ki ([1]; Ki m1, membranes of transfected CHO cells): 0.00123 µM; Ki ([2]; Ki m2, membranes of transfected CHO cells): 0.00011 µM; Ki ([3]; Ki m4, membranes of transfected CHO cells): 0.00027 µM; Mean % of baseline ([4]; sample collection time 20 min (control, first baseline, before injection)): 98.61 % of baseline; Mean % of baseline ([4]; sample collection time 30 min (control, second baseline, before injection)): 93.87 % of baseline; Mean % of baseline ([4]; sample collection time 40 min (control, third baseline, before injection)): 102.42 % of baseline; Mean % of baseline ([4]; sample collection time 50 min (compounds injected at 50 minutes)): 103.86 % of baseline; Mean % of baseline ([4]; sample collection time 60 min, injected at 50 min): 102.14 % of baseline; Mean % of baseline ([4]; sample collection time 70 min, injected at 50 min): 175.31 % of baseline; Mean % of baseline ([4]; sample collection time 80 min, injected at 50 min): 278.67 % of baseline; Mean % of baseline ([4]; sample collection time 90 min, injected at 50 min): 266.94 % of baseline; Mean % of baseline ([4]; sample collection time 100 min, injected at 50 min): 245.19 % of baseline; Mean % of baseline ([4]; sample collection time 110 min, injected at 50 min): 217.34 % of baseline; Mean % of baseline ([4]; sample collection time 120 min, injected at 50 min): 222.39 % of baseline; Mean % of baseline ([4]; sample collection time 130 min, injected at 50 min): 205.69 % of baseline; Mean % of baseline ([4]; sample collection time 140 min, injected at 50 min): 188.49 % of baseline; Mean % of baseline ([4]; sample collection time 150 min, injected at 50 min): 189.79 % of baseline; Mean % of baseline ([4]; sample collection time 160 min, injected at 50 min): 184.27 % of baseline; Mean % of baseline ([4]; sample collection time 170 min, injected at 50 min): 189.27 % of baseline; Mean % of baseline ([4]; sample collection time 180 min, injected at 50 min): 189.86 % of baseline
c1cnc(Oc2ccc3c(c2)CCC3N2CCN(C3CCCCC3)CC2)nc1 (single isomer, unassigned) [Compound 11] | 0.314 | 0.088 |  | 
c1cnc(Oc2ccc3c(c2)CCCC3N2CCN(C3CCCCC3)CC2)nc1 (stereo not shown) [Compound 5, 4-Cyclohexyl-1-piperazinyl-[6-[(2-pyrimidinyl)oxy]]-1,2,3,4-tetrahydronaphthalene] | 0.16 | 0.021 | 0.035 | 
c1cnc(Oc2ccc3c(c2)CCC3N2CCN(C3CCCCC3)CC2)nc1 (stereo not shown) [Compound 9] | 0.265 | 0.035 |  | 
c1cnc(Oc2ccc3c(c2)CCC3N2CCN(C3CCCCC3)CC2)nc1 (single isomer, unassigned) [Compound 10] | 0.151 | 0.0115 | 0.017 | 
O=S(=O)(c1ccccc1)c1ccc2c(c1)CCC2N1CCN(CCO)CC1 (stereo not shown) [Compound 1] | 0.356 | 0.079 | 0.106 | 
Nc1ccc(Oc2ccc3c(c2)OCCC3N2CCN(C3CCCCC3)CC2)cc1 (stereo not shown) [Compound 3] | 0.082 | 0.13 | 0.037 | 
Nc1ccc(Oc2ccc3c(c2)CCCC3N2CCN(C3CCCCC3)CC2)cc1 (stereo not shown) [Compound 7] | 0.105 | 0.026 | 0.021 | 
O=[N+]([O-])c1ccc(Oc2ccc3c(c2)CCCC3N2CCN(C3CCCCC3)CC2)cc1 (stereo not shown) [Compound 6] | 0.633 | 0.096 | 0.077 | 
CC(=O)Nc1ccc(Oc2ccc3c(c2)OCCC3N2CCN(C3CCCCC3)CC2)cc1 (stereo not shown) [Compound 4] | 0.223 | 0.224 | > 0.2 | 
COc1ccc(S(=O)(=O)c2ccc3c(c2)CCC3N2CCC(N3CCCCC3)CC2)cc1 (stereo not shown) [Compound 13] | 0.067 | 0.017 | 0.033 | 
